Data from patent US7189691B2, “Methods and compositions for treating leukemia” (The Administrators of the Tulane Educational Fund, priority 2004, dated 2007).
Entries after “also recorded” stand apart in the source; their conditions may differ.

Columns and labels:
AF4-AF9 interaction [1] = target: T1, AF4-AF9 interaction (Homo sapiens, UniProt P42568); test: Enzyme-linked protein binding assay, GST-AF4(749-775) and biotinylated AF9; conditions: peptide 20 μg/ml; FIG. 2A
T1 construct: made in house; host or cells: GST-AF4 from E. coli; AF9 by coupled in vitro transcription/translation (Promega)
T1 sequence (P42568 211-568): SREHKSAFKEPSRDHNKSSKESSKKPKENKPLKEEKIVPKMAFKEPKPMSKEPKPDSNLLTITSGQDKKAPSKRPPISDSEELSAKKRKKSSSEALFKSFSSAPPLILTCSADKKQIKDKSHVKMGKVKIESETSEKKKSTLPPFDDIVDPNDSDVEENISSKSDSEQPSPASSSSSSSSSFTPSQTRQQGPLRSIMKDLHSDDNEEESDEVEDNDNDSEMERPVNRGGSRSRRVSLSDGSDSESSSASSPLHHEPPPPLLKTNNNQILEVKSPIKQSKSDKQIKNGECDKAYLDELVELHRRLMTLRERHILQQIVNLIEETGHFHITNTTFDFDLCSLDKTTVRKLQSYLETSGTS
Experimental: Next, an enzyme-linked protein binding assay was developed as a potential high throughput tool to semi-quantitatively assess the ability of various compounds to disrupt the AF4-AF9 interaction in vitro (FIGS. 2A and 2B).
GST-AF4 (749–775) SEQ ID NO: 107 was bound to glutathione-coated 96-well plates and incubated with biotinylated AF9 in conjunction with 20 μg/ml of the following peptides: • (a) Pen-[…], a fusion protein of PENETRATIN™ transporter peptide to the amino terminus of […](SEQ ID NO: 110, PFmut), • (b) Pen-[…], a fusion protein of the transporter protein PENETRATIN™ to the amino terminus of […](SEQ ID NO: 2; or PFWT), • (c) […] or […](SEQ ID NO: 111); • (d) […] or […] (SEQ ID NO: 112); • (e) […] or […](SEQ ID NO: 113), or with • (f) DMSO, or • (g) GST-Cx, a control.
The plate was washed and the retention of AF9 was determined by a colorimetric assay using streptavidin-alkaline phosphatase and pNPP as a substrate. […] At this same peptide concentration, PFmut (a) in col. […] The 10 amino acid peptide (d) in col. 6 is the smallest molecule found to have activity in vitro.

B1 cells = test: Cell cycle analysis (PI DNA staining, flow cytometry); assay type: cell-based; conditions: for proportion of cells in G1 / proportion of cells in G2 / proportion of cells in S: G1:S:G2 ratio
Experimental: Leukemia cells were subjected to cell cycle analyses using a Cellular DNA flow cytrometric analysis kit (Roche) according to manufacturers' protocols to determine if PFWT might also induce cell cycle arrest. B1 cells were treated with peptides as outlined above and fixed. For DNA staining, cells were harvested and washed and resuspended with PBS at a concentration of 10^6 cells/ml. 1 unit/ml of RNase and 50 μg/mI of PI was added to this suspension and incubated at 37° C. for 1 hr and analyzed by flow cytometry using Coulter benchtop flow cytometer.

B1 leukemia cells = test: CaspACE FITC-VAD-FMK caspase assay; assay type: cell-based; conditions: 50 μg peptide, 24 h / overnight
Experimental: To examine an additional marker of apoptosis, apoptosis assays utilizing the FITC-labeled VAD-FMK caspase substrate, CaspACE FITC-VAD-FMK (Promega) were performed according to the manufacturer's instructions. Caspase activation in individual cells was monitored by binding of the caspase substrate, followed by flow cytometry analysis. Briefly, B1 leukemia cells were suspended in RPMI 1640+10% FCS at a concentration of 5×10^5 cells/ml and treated with 50 μg PFWT, PFmut or an equal volume of DMSO. Following an overnight incubation at 37° C., the fluorescent caspase substrate CaspACE FITC-VAD-FMK marker was added to a final concentration of 10 μM and incubated for 20 minutes at 37° C. under light protective conditions. The cells were pelletted, washed, and resuspended in PBS. Cells were then analyzed by flow cytometry using a Becton Dickinson FACS Vantage flow cytometer. A 488 nm wavelength argon-ion laser beam was used for excitation, and the emission was measured using a 530 nm filter.

[2] = tested on: hematopoietic progenitor cells (peripheral blood stem cells); test: Methylcellulose clonogenic assay; assay type: cell-based, human; conditions: 100 μg/ml, 72 h incubation; FIG. 4A
Text: PFWT is toxic to several leukemia cell lines raising the possibility that normal hematopoietic cells are also sensitive to the peptide. To verify whether PFWT has any effect on hematopoietic stem cells, standard methylcellulose-based assays were employed to enumerate the colony-forming potential of human peripheral blood and bone marrow stem cells.
Cryopreserved bone marrow and peripheral blood hematopoietic progenitor cells from healthy donors were thawed and diluted with M199 media (Invitrogen) to give a final DMSO concentration of 0.1%. Cells were incubated at room temperature for 2 h for equilibration. Nucleated cells at a concentration of 5×10^5 cells/ml were then incubated with the peptides PFWT or PFmut or DMSO control vehicle for 48 or 72 h. After the incubation period, 400 μl of the cell suspensions were suspended in 3.6 ml MethoCult GF H4434 methylcellulose media containing cytokines (erythropoietin, G-CSF, GM-CSF, stem cell factor, IL-3 and IL-6) (Stem Cell Technologies) and transferred to 25 mm plates with grids. The cells were plated in triplicate and incubated for 2 weeks at 37° C. with 5% CO2 in a humidified incubator. After 2 weeks, the number of colonies (>50 cells) per plate was counted under an inverted light microscope as a measure of progenitor cell viability.

AF4-AF9 interaction [3] = target: T1, AF4-AF9 interaction; test: Enzyme-linked protein binding assay, GST-AF4(749-775) and biotinylated AF9

CC[C@H](C)[C@H](NC(=O)[C@H](CCCCN)NC(=O)[C@@H](NC(=O)[C@H](Cc1c[nH]c2ccccc12)NC(=O)[C@H](CC(C)C)NC(=O)[C@H](CCCCN)NC(=O)[C@H](CCCCN)NC(=O)[C@H](Cc1c[nH]c2ccccc12)NC(=O)[C@H](CCCCN)NC(=O)[C@H](CCSC)NC(=O)[C@H](CCCNC(=N)N)NC(=O)[C@H](CCCNC(=N)N)NC(=O)[C@H](CC(N)=O)NC(=O)[C@H](CCC(N)=O)NC(=O)[C@H](Cc1ccccc1)NC(=O)[C@H](Cc1c[nH]c2ccccc12)NC(=O)[C@H](CCCCN)NC(=O)[C@@H](NC(=O)[C@H](CCC(N)=O)NC(=O)[C@@H](N)CCCNC(=N)N)[C@@H](C)CC)C(C)C)C(=O)N[C@@H](CC(=O)O)C(=O)N[C@@H](CC(C)C)C(=O)N[C@@H](CC(=O)O)C(=O)N[C@@H](CC(C)C)C(=O)N[C@@H](CC(C)C)C(=O)N[C@@H](CO)C(=O)N[C@@H](CCCNC(=N)N)C(=O)N[C@H](C(=O)N1CCC[C@H]1C(=O)O)C(C)C [PFWT]
AF9 binding to GST-AF4 (retention of AF9) (AF4-AF9 interaction [1]): almost completely block AF9 binding
sub-G1 population (of all events) (B1 cells): 51%
proportion of cells in G1 (B1 cells): 47
proportion of cells in G2 (B1 cells): 8
proportion of cells in S (B1 cells): 45
caspase activation (fluorescence intensity) (B1 leukemia cells): caspases are activated
colony forming potential (colonies >50 cells after 14 days) [2]: neither PFWT nor PFmut have any significant effect; also recorded: does not impair their colony forming potential
AF4-AF9 interaction (AF4-AF9 interaction [3]; 10 μg/ml, FIG. 2B): abolished
concentration dependence of AF4-AF9 interaction (AF4-AF9 interaction [3]; FIG. 2B): dose dependent reduction; also recorded: displaces AF9 from AF4 in a concentration-dependant fashion
lowest concentration showing activity (AF4-AF9 interaction [3]; FIG. 2B): 10 ng/mL

CC[C@H](C)[C@H](NC(=O)[C@H](CCC(N)=O)NC(=O)[C@@H](N)CCCNC(=N)N)C(=O)N[C@@H](CCCCN)C(=O)N[C@@H](Cc1c[nH]c2ccccc12)C(=O)N[C@@H](Cc1ccccc1)C(=O)N[C@@H](CCC(N)=O)C(=O)N[C@@H](CC(N)=O)C(=O)N[C@@H](CCCNC(=N)N)C(=O)N[C@@H](CCCNC(=N)N)C(=O)N[C@@H](CCSC)C(=O)N[C@@H](CCCCN)C(=O)N[C@@H](Cc1c[nH]c2ccccc12)C(=O)N[C@@H](CCCCN)C(=O)N[C@@H](CCCCN)C(=O)N[C@@H](CC(C)C)C(=O)N[C@@H](Cc1c[nH]c2ccccc12)C(=O)N[C@@H](CCC(=O)O)C(=O)N[C@@H](CCCCN)C(=O)N[C@@H](CO)C(=O)N[C@@H](CC(=O)O)C(=O)N[C@@H](CC(C)C)C(=O)N[C@@H](CC(=O)O)C(=O)N[C@@H](CC(C)C)C(=O)N[C@@H](CC(C)C)C(=O)N[C@@H](CO)C(=O)N[C@@H](CCCNC(=N)N)C(=O)N[C@H](C(=O)N1CCC[C@H]1C(=O)O)C(C)C [PFmut]
AF9 binding to GST-AF4 (retention of AF9) (AF4-AF9 interaction [1]): interferes with AF9 binding, but a significant amount of AF9 remains bound in the well
proportion of cells in G1 (B1 cells): 52
proportion of cells in G2 (B1 cells): 8
proportion of cells in S (B1 cells): 40
caspase activation (fluorescence intensity) (B1 leukemia cells): little caspase activation can be detected
colony forming potential (colonies >50 cells after 14 days) [2]: neither PFWT nor PFmut have any significant effect
concentration at which activity plateaus (AF4-AF9 interaction [3]): 40 µg/mL
